# Source: paper PMC6710338, “Turning a Collagenesis-Inducing Peptide Into a Potent Antibacterial and Antibiofilm Agent Against Multidrug-Resistant Gram-Negative Bacteria” (Frontiers in Microbiology, 2019)
# Peptide text beside a SMILES is read from it.
# System: MDR P. aeruginosa isolates (PA002, PA004, Pa3)
# Experiment: Inhibition of biofilm formation, crystal violet assay
# Type: cell-based, Pseudomonas aeruginosa
# Settings: in TSB
# Description: The ability of peptide 3.1-PP4 to inhibit the biofilm formation by three P. aeruginosa isolates (PA002, PA004, Pa3) and by three K. pneumoniae isolates (KP004, KP007 and KP010) was assessed at concentrations equal to the MIC, 1/2 × MIC and 1/4 × MIC in tryptic soy broth – (TSB – Liofilchem s.r.l., Italy) using the crystal violet assay as reported by [Gomes et al. (2014)]. Two independent experiments were performed in triplicate.
# Some of the MDR isolates of P. aeruginosa and K. pneumoniae were randomly selected to form biofilms in the absence (controls) and presence (at MIC, 1/2 × MIC and 1/4 × MIC) of the peptide 3.1-PP4. In this assay, the test compounds were used at sub-inhibitory concentrations, since if they had been present at the MIC or higher concentrations, bacteria would be killed before starting to produce the biofilms.
# FIGURE 1 Biofilm biomass quantitation of biofilms formed in the presence of peptide 3.1-PP4. Biofilms of three MDR P. aeruginosa (PA002, Pa3, and PA004) and of three MDR K. pneumoniae (KP004, KP007, and KP010) were formed in the presence of the peptide at three different concentrations, MIC, 1/2 × MIC, and 1/4 × MIC. Control biofilms were grown in absence of the peptide. Two independent experiments were performed in triplicate. Error bars represent SD. […]
smiles,measurement,setting,value
CC(C)C[C@H](NC(=O)[C@H](Cc1c[nH]c2ccccc12)NC(=O)[C@H](CCCCN)NC(=O)[C@H](CC(C)C)NC(=O)[C@H](CC(C)C)NC(=O)[C@H](CCCCN)NC(=O)[C@@H](N)CCCCN)C(=O)N[C@@H](CC(C)C)C(=O)N[C@@H](CCCCN)C(=O)N[C@@H](CC(C)C)C(=O)N[C@@H](CC(C)C)C(=O)N[C@@H](CCCCN)C(=O)N[C@H](C(=O)N[C@H](C(=O)N[C@@H](CCCCN)C(=O)N[C@@H](CO)C(N)=O)[C@@H](C)O)[C@@H](C)O [Peptide 3.1-PP4] (H-KKLLKWLLKLLKTTKS-NH2; N-terminus assumed),biofilm formation (crystal violet absorbance at 595 nm),"peptide at 1/2 and 1/4 of the MIC, three P. aeruginosa isolates",does not significantly inhibit biofilm formation
same,biofilm formation (crystal violet absorbance at 595 nm),"peptide at MIC, exception isolate PA002, two experiments in triplicate",no biofilm was actually produced
